Reference: patent US6531156B1, “Aqueous solven encapsulation method, apparatus and microcapsules” (Temple University, priority 1994, dated 2003)
Like-named read-outs stand apart in the source and are kept apart here.

Legend:
[1] = pH response and retention of bromphenol blue in octadecylamine carboxymethylcellulose microcapsules; type: physicochemical; details: for colour of microcapsules in acid medium: rehydrated and wet stored microcapsules
Procedure: Step 1: A 100 milligram sample of bromphenol blue (Fisher Scientific Co.) was dissolved in 25 milliliters of a 0.1% solution of sodium carboxymethylcellulose (medium viscosity, Ruger Chemical Co.) and the resulting solution was slowly pumped (approximately 1 milliliter per minute) through a capillary drawn to a fine tip (0.1 millimeter o.d.). The emerging droplets were allowed to fall a distance of about 1 centimeter into a slowly stirred 0.1% aqueous solution of octadecylamine (Aldrich Chemical Co.) solubilized as the acetate at pH 7.0.
Step 2: The resulting approximately 1.5 millimeter diameter microcapsules were stirred for an additional hour and separated with the aid of fine netting. The microcapsules were washed with two 100 milliliter volumes of water. About half the microcapsules were stored wet and refrigerated until used. The other half of the microcapsules were lyophilized and stored dry until used.
Step 3: A few dozen of the lyophilized microcapsules were rehydrated in a few milliliters of water for an hour and were used in parallel with the wet stored microcapsules to test their sensitivity to pH. Dilutions of hydrochloric acid were made to provide solutions with pH values of 2, 3, and 4. To these hydrochloric acid solutions, a few rehydrated and a few wet stored microcapsules were added one at a time.

[2] = test system: bovine rotavirus strain WC3; details: WC3 stock diluted 1:50 in 0.05N sodium salt of polymer or 0.05M amine salt, pH 7.0, versus 0.9% NaCl
[3] = spermine alginate microcapsules, 5 water washes, absorbance after dissolving microcapsules with sodium chloride

Compound: O=S1(=O)OC(c2cc(Br)c(O)c(Br)c2)(c2cc(Br)c(O)c(Br)c2)c2ccccc21 [bromphenol blue]
- diffusion of encapsulated indicator out of the microcapsule ([1]; octadecylamine carboxymethylcellulose microcapsules, rehydrated and wet stored): did not diffuse out of it
- colour of microcapsules in acid medium ([1]; pH 3 solution): changed to yellow within a few minutes
- colour of microcapsules in acid medium ([1]; pH 4 medium): remained blue

Compound: CCCCCCCCCCCCN [dodecylamine]
- reduction in rotavirus infectivity [2]: complete ablation

Compound: O=c1[nH]cc(F)c(=O)[nH]1 [fluorouracil, Fluorouracil]
- initial amount of core material retained in the microcapsules during the repeated washings [3]: more than half

Compound: CN(C)c1ccc2nc3ccc(=[N+](C)C)cc-3sc2c1 [methylene blue]
- reduction in rotavirus infectivity [2]: Essentially no effect

Compound: C1CNCCN1 [piperazine]
- reduction in rotavirus infectivity [2]: 30 fold

Compound: NCCCNCCCCNCCCN [spermine]
- reduction in rotavirus infectivity [2]: Essentially no effect
- reduction in rotavirus infectivity ([2]; listed as spermine hydrochloride): neither sodium alginate nor spermine hydrochloride reduced rotavirus infectivity
